Data reported in patent publication US12172974B2 (Biohaven Pharmaceutical Holding Company Ltd., priority 2012, dated 2024).

assay: Stability in Simulated Gastric Fluid (SGF); format: in vitro ADME; settings: 37° C., 0.01 mg/mL
Method: (§1) Stability in Simulated Gastric Fluid (SGF) and Simulated Intestinal Fluid (SIF). Procedure from Baudy et. al. (J. Med. Chem. 2009, 52, 771-778) used. The physiological stability of prodrugs was determined by examining the stability of the compound in SGF, and SIF at 37° C. The compounds were prepared in a 9:1 mixture of the appropriate test component (SGF, SIF) and acetonitrile to a final concentration of 0.01 mg/mL. The samples were thoroughly mixed and maintained at 37° C. Each sample was injected consecutively onto an Agilent 1100 system (Luna C18, 3 μm, 50 mm×3 mm; 1 mL/min; mobile phase of 0.1% trifluoroacetic acid in water/0.1% trifluoroacetic acid in acetonitrile) after a 3 h period. The percent remaining of prodrug was calculated by comparing the area of prodrug compound versus riluzole generated. The identities of the parent compounds and conversion products were confirmed by LC/MS.

| Structure (SMILES) | SGF (3 hours): percent of prodrug metabolized to riluzole |
| --- | --- |
| C[C@@H](N)C(=O)Nc1nc2ccc(OC(F)(F)F)cc2s1 [Cpd 2, (R)-2-Amino-N-(6-trifluoromethoxy-benzothiazol-2-yl)-propionamide] | 0% |
| N[C@H](Cc1ccccc1)C(=O)Nc1nc2ccc(OC(F)(F)F)cc2s1 [Cpd 4, (R)-2-Amino-3-phenyl-N-(6-trifluoromethoxy-benzothiazol-2-yl)-propionamide] | 3% |
| C[C@H](N)C(=O)Nc1nc2ccc(OC(F)(F)F)cc2s1 [Cpd 7, (S)-2-Amino-N-(6-trifluoromethoxy-benzothiazol-2-yl)-propionamide] | 0% |
| N[C@@H](COCc1ccccc1)C(=O)Nc1nc2ccc(OC(F)(F)F)cc2s1 [Cpd 10, (S)-2-Amino-3-benzyloxy-N-(6-trifluoromethoxy-benzothiazol-2-yl)-propionamide] | 0% |
| CC(C)[C@H](N)C(=O)Nc1nc2ccc(OC(F)(F)F)cc2s1 [Cpd 11, (S)-2-Amino-3-methyl-N-(6-trifluoromethoxy-benzothiazol-2-yl)-butyramide] | 0% |

The remaining lines, values ahead:

| SGF (3 hours): percent of prodrug metabolized to riluzole | Structure (SMILES) |
| --- | --- |
| 0% | COC(=O)Nc1nc2ccc(OC(F)(F)F)cc2s1 [Cpd 12, (6-Trifluoromethoxy-benzothiazol-2-yl)-carbamic acid methyl ester] |
| 0% | CCOC(=O)Nc1nc2ccc(OC(F)(F)F)cc2s1 [Cpd 13, (6-Trifluoromethoxy-benzothiazol-2-yl)-carbamic acid ethyl ester] |
| 0% | CCCOC(=O)Nc1nc2ccc(OC(F)(F)F)cc2s1 [Cpd 14, (6-Trifluoromethoxy-benzothiazol-2-yl)-carbamic acid propyl ester] |

assay: Stability in Simulated Intestinal Fluid (SIF); format: in vitro ADME; settings: 37° C., 0.01 mg/mL
Method: as §1

| Structure (SMILES) | SIF (3 hours): percent of prodrug metabolized to riluzole |
| --- | --- |
| C[C@@H](N)C(=O)Nc1nc2ccc(OC(F)(F)F)cc2s1 [Cpd 2, (R)-2-Amino-N-(6-trifluoromethoxy-benzothiazol-2-yl)-propionamide] | 50% |
| N[C@H](Cc1ccccc1)C(=O)Nc1nc2ccc(OC(F)(F)F)cc2s1 [Cpd 4, (R)-2-Amino-3-phenyl-N-(6-trifluoromethoxy-benzothiazol-2-yl)-propionamide] | 0% |
| C[C@H](N)C(=O)Nc1nc2ccc(OC(F)(F)F)cc2s1 [Cpd 7, (S)-2-Amino-N-(6-trifluoromethoxy-benzothiazol-2-yl)-propionamide] | 50% |
| N[C@@H](COCc1ccccc1)C(=O)Nc1nc2ccc(OC(F)(F)F)cc2s1 [Cpd 10, (S)-2-Amino-3-benzyloxy-N-(6-trifluoromethoxy-benzothiazol-2-yl)-propionamide] | 0% |
| CC(C)[C@H](N)C(=O)Nc1nc2ccc(OC(F)(F)F)cc2s1 [Cpd 11, (S)-2-Amino-3-methyl-N-(6-trifluoromethoxy-benzothiazol-2-yl)-butyramide] | 40% |

Continued, values first:

| SIF (3 hours): percent of prodrug metabolized to riluzole | Structure (SMILES) |
| --- | --- |
| 0% | COC(=O)Nc1nc2ccc(OC(F)(F)F)cc2s1 [Cpd 12, (6-Trifluoromethoxy-benzothiazol-2-yl)-carbamic acid methyl ester] |
| 0% | CCOC(=O)Nc1nc2ccc(OC(F)(F)F)cc2s1 [Cpd 13, (6-Trifluoromethoxy-benzothiazol-2-yl)-carbamic acid ethyl ester] |
| 0% | CCCOC(=O)Nc1nc2ccc(OC(F)(F)F)cc2s1 [Cpd 14, (6-Trifluoromethoxy-benzothiazol-2-yl)-carbamic acid propyl ester] |

assay: Metabolic stability in pooled mouse liver microsomes; format: in vitro ADME; settings: mouse liver microsomes 0.5 mg/mL, 1 uM, 37° C., NADPH
Method: (§2) Metabolic Stability: In vitro metabolic stability was determined in pooled mouse or human liver microsomes (BD Gentest) at a protein concentration of 0.5 mg/mL in reaction buffer (100 mM KH2PO4, pH 7.4 and 12 mM MgCl2). Each drug candidate was added to a final concentration of 1 uM. This mixture was pre-warmed to 37° C. for 10 minutes prior to starting the reaction with the addition of β-Nicotinamide adenine dinucleotide 2′-phosphate reduced (NADPH) to a final concentration of 1 mM. A parallel incubation lacking NADPH served as the control. After incubation for 30 min at 37° C., the reactions were quenched by the addition of acetonitrile containing 0.1% formic acid and internal standard, vortex mixed for 2 minutes and centrifuged at 4000 rpm for 10 minutes to pellet the precipitated protein. The resulting supernatant containing the drug candidate and its potential metabolites was diluted 5-fold with water containing 0.1% formic acid and submitted to LC-MS/MS analysis. […]
(§3) LC-MS/MS Analysis: An aliquot from each incubation was analyzed by LC-MS/MS with SRM detection in the positive ionization mode using an ABSciex API 5500 QTrap Mass Spectrometer interfaced via the ABSciex Turbo V IonSpray source (ESI) to an Eksigent ExpressHT LC system. […] A fast gradient, from 15 to 85% organic in 2.5 minutes, with run time of 5.0 minutes, and flow rate of 50 ul/min was utilized. Peak areas were integrated using MultiQuant v2.0 software from ABSciex.

| Structure (SMILES) | Metabolic Stability mouse (30 minutes): percent of prodrug metabolized to riluzole |
| --- | --- |
| C[C@@H](N)C(=O)Nc1nc2ccc(OC(F)(F)F)cc2s1 [Cpd 2, (R)-2-Amino-N-(6-trifluoromethoxy-benzothiazol-2-yl)-propionamide] | 10% |
| N[C@H](Cc1ccccc1)C(=O)Nc1nc2ccc(OC(F)(F)F)cc2s1 [Cpd 4, (R)-2-Amino-3-phenyl-N-(6-trifluoromethoxy-benzothiazol-2-yl)-propionamide] | 12% |
| C[C@H](N)C(=O)Nc1nc2ccc(OC(F)(F)F)cc2s1 [Cpd 7, (S)-2-Amino-N-(6-trifluoromethoxy-benzothiazol-2-yl)-propionamide] | 1% |
| N[C@@H](COCc1ccccc1)C(=O)Nc1nc2ccc(OC(F)(F)F)cc2s1 [Cpd 10, (S)-2-Amino-3-benzyloxy-N-(6-trifluoromethoxy-benzothiazol-2-yl)-propionamide] | 0% |
| CC(C)[C@H](N)C(=O)Nc1nc2ccc(OC(F)(F)F)cc2s1 [Cpd 11, (S)-2-Amino-3-methyl-N-(6-trifluoromethoxy-benzothiazol-2-yl)-butyramide] | 40% |

More lines, now with the values ahead:

| Metabolic Stability mouse (30 minutes): percent of prodrug metabolized to riluzole | Structure (SMILES) |
| --- | --- |
| 10% | COC(=O)Nc1nc2ccc(OC(F)(F)F)cc2s1 [Cpd 12, (6-Trifluoromethoxy-benzothiazol-2-yl)-carbamic acid methyl ester] |
| 8% | CCOC(=O)Nc1nc2ccc(OC(F)(F)F)cc2s1 [Cpd 13, (6-Trifluoromethoxy-benzothiazol-2-yl)-carbamic acid ethyl ester] |
| 15% | CCCOC(=O)Nc1nc2ccc(OC(F)(F)F)cc2s1 [Cpd 14, (6-Trifluoromethoxy-benzothiazol-2-yl)-carbamic acid propyl ester] |

assay: Metabolic stability in pooled human liver microsomes; format: in vitro ADME; settings: human liver microsomes 0.5 mg/mL, 1 uM, 37° C., NADPH
Method: as §2, §3

| Structure (SMILES) | Metabolic Stability human (30 minutes): percent of prodrug metabolized to riluzole |
| --- | --- |
| C[C@@H](N)C(=O)Nc1nc2ccc(OC(F)(F)F)cc2s1 [Cpd 2, (R)-2-Amino-N-(6-trifluoromethoxy-benzothiazol-2-yl)-propionamide] | 4% |
| N[C@H](Cc1ccccc1)C(=O)Nc1nc2ccc(OC(F)(F)F)cc2s1 [Cpd 4, (R)-2-Amino-3-phenyl-N-(6-trifluoromethoxy-benzothiazol-2-yl)-propionamide] | 18% |
| C[C@H](N)C(=O)Nc1nc2ccc(OC(F)(F)F)cc2s1 [Cpd 7, (S)-2-Amino-N-(6-trifluoromethoxy-benzothiazol-2-yl)-propionamide] | 0% |
| N[C@@H](COCc1ccccc1)C(=O)Nc1nc2ccc(OC(F)(F)F)cc2s1 [Cpd 10, (S)-2-Amino-3-benzyloxy-N-(6-trifluoromethoxy-benzothiazol-2-yl)-propionamide] | 15% |
| CC(C)[C@H](N)C(=O)Nc1nc2ccc(OC(F)(F)F)cc2s1 [Cpd 11, (S)-2-Amino-3-methyl-N-(6-trifluoromethoxy-benzothiazol-2-yl)-butyramide] | 6% |

Further lines, results first:

| Metabolic Stability human (30 minutes): percent of prodrug metabolized to riluzole | Structure (SMILES) |
| --- | --- |
| 0% | COC(=O)Nc1nc2ccc(OC(F)(F)F)cc2s1 [Cpd 12, (6-Trifluoromethoxy-benzothiazol-2-yl)-carbamic acid methyl ester] |
| 7% | CCOC(=O)Nc1nc2ccc(OC(F)(F)F)cc2s1 [Cpd 13, (6-Trifluoromethoxy-benzothiazol-2-yl)-carbamic acid ethyl ester] |
| 34% | CCCOC(=O)Nc1nc2ccc(OC(F)(F)F)cc2s1 [Cpd 14, (6-Trifluoromethoxy-benzothiazol-2-yl)-carbamic acid propyl ester] |

assay: Plasma stability in fresh mouse plasma; format: in vitro ADME; settings: 1 uM, 37° C.
Method: (§4) Plasma Stability: Assessment of plasma stability was carried out by individual incubations of drug candidates in fresh mouse or human control plasma at a concentration of 1 uM for 1 hour at 37° C. After which, the samples were de-proteinized by addition of 2 volumes of acetonitrile containing 0.1% formic acid and internal standard, vortex mixed for 2 minutes and centrifuged at 4000 rpm for 10 minutes to pellet precipitated protein. The resulting supernatant containing the drug candidates was diluted 5-fold with water containing 0.1% formic acid and submitted to LC-MS/MS analysis. All determinations were done in triplicate. […]
as §3

| Structure (SMILES) | Plasma Stability mouse (1 hour): percent of prodrug metabolized to riluzole |
| --- | --- |
| C[C@@H](N)C(=O)Nc1nc2ccc(OC(F)(F)F)cc2s1 [Cpd 2, (R)-2-Amino-N-(6-trifluoromethoxy-benzothiazol-2-yl)-propionamide] | 36% |
| N[C@H](Cc1ccccc1)C(=O)Nc1nc2ccc(OC(F)(F)F)cc2s1 [Cpd 4, (R)-2-Amino-3-phenyl-N-(6-trifluoromethoxy-benzothiazol-2-yl)-propionamide] | 47% |
| C[C@H](N)C(=O)Nc1nc2ccc(OC(F)(F)F)cc2s1 [Cpd 7, (S)-2-Amino-N-(6-trifluoromethoxy-benzothiazol-2-yl)-propionamide] | 28% |
| N[C@@H](COCc1ccccc1)C(=O)Nc1nc2ccc(OC(F)(F)F)cc2s1 [Cpd 10, (S)-2-Amino-3-benzyloxy-N-(6-trifluoromethoxy-benzothiazol-2-yl)-propionamide] | 52% |
| CC(C)[C@H](N)C(=O)Nc1nc2ccc(OC(F)(F)F)cc2s1 [Cpd 11, (S)-2-Amino-3-methyl-N-(6-trifluoromethoxy-benzothiazol-2-yl)-butyramide] | 45% |

Now from value to compound:

| Plasma Stability mouse (1 hour): percent of prodrug metabolized to riluzole | Structure (SMILES) |
| --- | --- |
| 0% | COC(=O)Nc1nc2ccc(OC(F)(F)F)cc2s1 [Cpd 12, (6-Trifluoromethoxy-benzothiazol-2-yl)-carbamic acid methyl ester] |
| 0% | CCOC(=O)Nc1nc2ccc(OC(F)(F)F)cc2s1 [Cpd 13, (6-Trifluoromethoxy-benzothiazol-2-yl)-carbamic acid ethyl ester] |
| 0% | CCCOC(=O)Nc1nc2ccc(OC(F)(F)F)cc2s1 [Cpd 14, (6-Trifluoromethoxy-benzothiazol-2-yl)-carbamic acid propyl ester] |

assay: Plasma stability in fresh human plasma; format: in vitro ADME; settings: 1 uM, 37° C.
Method: as §4, §3

| Structure (SMILES) | Plasma Stability Human (1 hour): percent of prodrug metabolized to riluzole |
| --- | --- |
| C[C@@H](N)C(=O)Nc1nc2ccc(OC(F)(F)F)cc2s1 [Cpd 2, (R)-2-Amino-N-(6-trifluoromethoxy-benzothiazol-2-yl)-propionamide] | 15% |
| N[C@H](Cc1ccccc1)C(=O)Nc1nc2ccc(OC(F)(F)F)cc2s1 [Cpd 4, (R)-2-Amino-3-phenyl-N-(6-trifluoromethoxy-benzothiazol-2-yl)-propionamide] | 6% |
| C[C@H](N)C(=O)Nc1nc2ccc(OC(F)(F)F)cc2s1 [Cpd 7, (S)-2-Amino-N-(6-trifluoromethoxy-benzothiazol-2-yl)-propionamide] | 10% |
| N[C@@H](COCc1ccccc1)C(=O)Nc1nc2ccc(OC(F)(F)F)cc2s1 [Cpd 10, (S)-2-Amino-3-benzyloxy-N-(6-trifluoromethoxy-benzothiazol-2-yl)-propionamide] | 9% |
| CC(C)[C@H](N)C(=O)Nc1nc2ccc(OC(F)(F)F)cc2s1 [Cpd 11, (S)-2-Amino-3-methyl-N-(6-trifluoromethoxy-benzothiazol-2-yl)-butyramide] | 11% |

Other lines, results leading:

| Plasma Stability Human (1 hour): percent of prodrug metabolized to riluzole | Structure (SMILES) |
| --- | --- |
| 15% | COC(=O)Nc1nc2ccc(OC(F)(F)F)cc2s1 [Cpd 12, (6-Trifluoromethoxy-benzothiazol-2-yl)-carbamic acid methyl ester] |
| 0% | CCOC(=O)Nc1nc2ccc(OC(F)(F)F)cc2s1 [Cpd 13, (6-Trifluoromethoxy-benzothiazol-2-yl)-carbamic acid ethyl ester] |
| 0% | CCCOC(=O)Nc1nc2ccc(OC(F)(F)F)cc2s1 [Cpd 14, (6-Trifluoromethoxy-benzothiazol-2-yl)-carbamic acid propyl ester] |
